# According to PMC7764826, “Flavonol Glycosides: In Vitro Inhibition of DPPIV, Aldose Reductase and Combating Oxidative Stress are Potential Mechanisms for Mediating the Antidiabetic Activity of Cleome droserifolia” (Molecules, 2020):
# Columns and labels:
# [1] = DPPH radical scavenging assay; details: 30 min, room temperature, 517 nm
# Experimental: The free radical scavenging capacity of the parent extract of C. droserifolia together with the isolated compounds was estimated using 2,2-diphenyl-1-picrylhydrazil (DPPH) as described previously. In brief, 240 µL of 0.004% DPPH in methanol was added to 8 µL of the parent extract and the isolated compounds at different concentrations: (2, 4, 12, 16 µg/mL) and (0.5, 1, 3, 4 µg/mL), respectively. The reaction mixture was mixed and incubated in dark for 30 min at room temperature. The absorbance was then measured at 517 nm against blank that was done using water instead of the plant extract. Ascorbic acid was used as the antioxidant standard and the IC50 value for samples and standard was determined.
# [2] = molecular target: T1, Dipeptidyl peptidase IV (DPPIV) (Homo sapiens, UniProt P27487); test: DPPIV Inhibitor Screening Kit (fluorescence); type: biochemical; details: in vitro, mean ± SEM of two replicates; read-out: DPPIV inhibition IC50 (converted)
# T1 construct: purchased Abnova
# Description: The DPPIV Inhibitor Screening Kit (Abnova, Taipei, Taiwan) was used in accordance to the manufacturer׳s protocol.
# [3] = Ferric reducing antioxidant power (FRAP) assay; details: expressed in µM FeCl2; isolated compounds at 200 µg/mL
# Experimental: The antioxidant potential of the extract and the isolated compounds was assessed according to the assay originally designed by Benzie and Strain (1996) using the DetectX® Ferric Reducing Antioxidant Power (FRAP™) Detection Kit by Arbor assays, Ann Arbor, USA. In the provided plate, 75 µL of the prepared FRAP Color Solution was mixed with 20 µL of either the aqueous extract (400 µg/mL), the isolated compounds (200 µg/mL), different concentrations of the standard ferrous chloride or ascorbic acid positive control. The mixture was incubated for 30 min at room temperature and the produced blue colored product was read at 560 nm. The FRAP values were calculated and expressed in µM FeCl2.
# aldose reductase = molecular target: T2, aldose reductase (Homo sapiens, UniProt P15121); test: Aldose Reductase Inhibitor Screening Kit (NADPH absorbance at 340 nm); type: biochemical; details: in vitro; for IC50: mean ± SEM of two replicates, read-out: Aldose reductase inhibition IC50 (converted)
# T2 construct: purchased Biovision
# Experimental: Determination of the aldose reductase inhibitory effectiveness of the investigated samples was performed kinetically using the Aldose Reductase Inhibitor Screening Kit (Biovision, Milpitas, CA, USA), according to the manufacturer׳s protocol. The decrease in the absorption of NADPH at 340 nm was measured in a mixture containing NADPH, the enzyme and its substrate, DL-glyceraldeyde in addition to test samples [31]. […] A 90 μL of freshly prepared Aldose Reductase Solution was then added and the plate was incubated protected from light at 37 °C for 15–20 min. After incubation, 40 μL enzyme substrate in assay buffer was added and the absorbance was measured at 340 nm kinetically for 60–90 min at 37 °C. A background control free from the enzyme was run and subtracted from the readings. The IC50 was calculated and presented for the samples and the standard.
# [4] = molecular target: Alpha-glucosidase enzyme from Saccharomyces cerevisiae; test: α-glucosidase inhibition assay (PNP-G substrate); type: biochemical; details: in vitro, pH 6.9, 37 °C
# Experimental: (§1) Alpha-glucosidase enzyme from Saccharomyces cerevisiae, α-amylase from porcine pancreas and 2-chloro-4-nitrophenyl-α-D-maltotrioside (CNPG3) were purchased from Sigma Aldrich. All other chemicals were purchased from UFC Biotechnology. A microplate reader (Anthos Zenyth-200RT, Cambridge, UK) was used for the spectrophotometric measurements. A Bruker NMR Spectrometer (Bruker, Yokohama, Japan) used for ^1H-NMR (400 MHZ) and ^13C-NMR (100 MHz) analysis. Spectra were recorded in CD3OD or DMSO-d6 using tetramethylsilane (Sigma-Aldrich, St. Louis, MO, USA) as an internal standard, and chemical shift values were expressed in δ ppm.
# The tested samples were added to a reaction mixture in a 96-well microplate containing 20 µL of the phosphate buffer and 20 µL of 5 mM p-nitrophenyl α -D-glucopyranoside (PNP-G) in the buffer. […] The IC50 for test compounds as well as the standard was calculated and presented.
# [5] = molecular target: T3, α-amylase from porcine pancreas (Sus scrofa, UniProt P00690); test: α-amylase inhibition assay (CNPG3 substrate, kinetic); type: biochemical; details: in vitro, pH 6.9, 37 °C
# T3 construct: purchased Sigma Aldrich
# T3 sequence (P00690 16-511): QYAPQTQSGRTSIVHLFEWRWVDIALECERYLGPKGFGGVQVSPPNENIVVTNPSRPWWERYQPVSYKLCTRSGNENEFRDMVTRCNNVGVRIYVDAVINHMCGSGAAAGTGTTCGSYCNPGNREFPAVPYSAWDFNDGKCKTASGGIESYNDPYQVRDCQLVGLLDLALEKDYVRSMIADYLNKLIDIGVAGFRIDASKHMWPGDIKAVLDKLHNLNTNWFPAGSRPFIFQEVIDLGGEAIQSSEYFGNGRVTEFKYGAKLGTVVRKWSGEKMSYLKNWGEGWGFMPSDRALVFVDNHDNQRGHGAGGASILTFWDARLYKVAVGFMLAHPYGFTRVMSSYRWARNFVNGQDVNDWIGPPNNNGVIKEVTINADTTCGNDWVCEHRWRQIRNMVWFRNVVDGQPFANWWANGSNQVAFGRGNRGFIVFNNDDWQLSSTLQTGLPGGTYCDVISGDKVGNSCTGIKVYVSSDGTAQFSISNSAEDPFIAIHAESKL
# Experimental: as §1
# A pre-incubation mixture was prepared which contained 40 mM phosphate buffer (pH 6.9) together with different concentrations (10, 50, 100, 200 µg/mL) and (5, 20, 50, 100 µg/mL) for the parent extract and the isolated compounds, respectively. […] Then, 2-chloro-4-nitrophenyl maltotrioside (CNPG3) substrate was added where the final concentration was 0.9 µmole/mL. […] A control which was devoid of the test samples was also run in parallel.
# breast (MCF7) carcinoma = details: cited from earlier work
# [6] = tested on: cultured skeletal muscle cells and adipocytes; set-up: method as in PMID 21890334; details: in vitro; cited from earlier work
# colon (HCT116) carcinoma = details: cited from earlier work
# liver (HepG2) carcinoma = details: cited from earlier work
# T1 sequence (P27487 whole entry, species assumed): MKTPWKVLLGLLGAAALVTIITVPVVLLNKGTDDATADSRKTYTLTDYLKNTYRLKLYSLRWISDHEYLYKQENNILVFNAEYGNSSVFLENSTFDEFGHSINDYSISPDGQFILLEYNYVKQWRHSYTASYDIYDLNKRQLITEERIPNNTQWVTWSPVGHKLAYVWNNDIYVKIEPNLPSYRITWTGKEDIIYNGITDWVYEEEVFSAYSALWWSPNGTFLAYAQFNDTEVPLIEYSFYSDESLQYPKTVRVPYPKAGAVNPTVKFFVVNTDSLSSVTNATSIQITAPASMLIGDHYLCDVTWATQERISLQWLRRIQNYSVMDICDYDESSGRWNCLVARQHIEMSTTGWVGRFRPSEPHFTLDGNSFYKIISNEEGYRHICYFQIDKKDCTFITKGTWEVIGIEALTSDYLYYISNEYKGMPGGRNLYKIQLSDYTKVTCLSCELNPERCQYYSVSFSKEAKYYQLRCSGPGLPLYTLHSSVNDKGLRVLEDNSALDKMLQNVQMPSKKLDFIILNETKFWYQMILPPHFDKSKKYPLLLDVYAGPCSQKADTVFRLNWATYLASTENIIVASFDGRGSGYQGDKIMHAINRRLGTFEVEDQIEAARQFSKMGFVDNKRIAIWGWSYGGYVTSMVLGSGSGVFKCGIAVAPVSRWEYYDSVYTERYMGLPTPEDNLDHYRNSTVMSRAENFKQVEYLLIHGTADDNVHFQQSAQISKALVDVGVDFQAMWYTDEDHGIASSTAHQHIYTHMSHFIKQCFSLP
DPPH radical scavenging IC50 [1] [µg/mL],IC50 [2] [µM],IC50 (aldose reductase) [µM],melting point [°C],α-glucosidase inhibition IC50 [4] [µg/mL],IC50 [5] [µM],SMILES,FRAP value [3] [µM],Cytotoxic activity (in words) (breast (MCF7) carcinoma),Effect on basal glucose uptake (in words) [6],Cytotoxic activity (in words) (colon (HCT116) carcinoma),Cytotoxic activity (in words) (liver (HepG2) carcinoma),Aldose reductase inhibitory activity (in words) (aldose reductase)
5.67 ± 0.09,0.318,50,–,–,–,"C[C@@H]1O[C@@H](Oc2cc(O)c3c(=O)c(O[C@@H]4O[C@H](CO)[C@@H](O)[C@H](O)[C@H]4O)c(-c4ccc(O)c(O)c4)oc3c2)[C@H](O)[C@H](O)[C@H]1O [Compound 1, quercetin-3-O-β-D-glucosyl-7-O-α-rhamnoside]",3106 ± 52.2,–,–,–,–,–
–,0.917,8.73,225,–,–,"COc1cc(-c2oc3cc(O[C@@H]4O[C@H](CO)[C@@H](O)[C@H](O)[C@H]4O[C@@H]4O[C@@H](C)[C@H](O)[C@@H](O)[C@H]4O)cc(O)c3c(=O)c2O)ccc1O [Compound 2, isorhamnetin-7-O-β-D-neohesperidoside]",–,–,–,–,–,–
–,0.721,45,–,–,–,"COc1cc(-c2oc3cc(O)cc(O)c3c(=O)c2O[C@@H]2O[C@H](CO)[C@@H](O)[C@H](O)[C@H]2O)ccc1O [Compound 3, isorhamnetin-3-O-β-D-glucoside]",–,–,–,–,–,–
9.44 ± 0.13,0.474,51.8,–,110.09 ± 4.2,258,"COc1ccc(-c2oc3cc(O[C@@H]4O[C@@H](C)[C@H](O)[C@@H](O)[C@H]4O)cc(O)c3c(=O)c2O[C@@H]2O[C@@H](C)[C@H](O)[C@@H](O)[C@H]2O)cc1 [Compound 4, kaempferol-4′-methoxy-3,7-O-α-dirhamnoside]",1812 ± 33.2,potent cytotoxic activities,significant insulin-like effects,potent cytotoxic activities,potent cytotoxic activities,–
11.45 ± 0.48,–,119,257,86.54 ± 3.8,163,"COc1cc(-c2oc3cc(O[C@@H]4O[C@@H](C)[C@H](O)[C@@H](O)[C@H]4O)cc(O)c3c(=O)c2O[C@@H]2O[C@@H](C)[C@H](OC(C)=O)[C@@H](O)[C@H]2O)ccc1O [Compound 5, isorhamnetin-3-O-α-(4″- acetylrhamnoside)-7-O-α-rhamnoside]",3610 ± 88.3,potent cytotoxic activities,significant insulin-like effects,potent cytotoxic activities,potent cytotoxic activities,least aldose reductase inhibitory activity
1.37 ± 0.07,–,–,–,–,–,"O=C1O[C@H]([C@@H](O)CO)C(O)=C1O [ascorbic acid, reference compound]",685.2 ± 1.07,–,–,–,–,–
